The values that follow come from publication PMC3050645 (Journal of the American Chemical Society, 2010).

Sequence of Chlorite dismutase (Cld) (Q47CX0 35-282): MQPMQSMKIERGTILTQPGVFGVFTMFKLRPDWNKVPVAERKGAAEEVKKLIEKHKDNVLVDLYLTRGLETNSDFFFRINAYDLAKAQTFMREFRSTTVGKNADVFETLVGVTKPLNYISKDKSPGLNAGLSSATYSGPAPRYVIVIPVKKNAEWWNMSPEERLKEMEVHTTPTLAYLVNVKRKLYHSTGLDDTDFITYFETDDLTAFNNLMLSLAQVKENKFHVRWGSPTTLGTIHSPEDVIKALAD

The assay concerns the target Chlorite dismutase (Cld) (Dechloromonas aromatica (nom. nud.), UniProt Q47CX0). As to the kind of experiment: UV/vis Soret titration, hyperbolic fit. The class given is binding.
Turning to `c1c[nH]cn1` [Imidazole], binding was put at a Kd of 7.6 ± 0.2 µM.

For `N#CS` [KSCN], the affinity, expressed as Kd, was 74 ± 2 µM.

Consider `O=NO` [NaNO2], for which the Kd (as a rule, a measure of binding affinity in units of concentration) was determined as 770 ± 30 µM. Against the preceding molecule, the Kd is about 10-fold higher.

Consider `c1ccncc1` [Pyridine], for which the Kd turned out to be 553 ± 8 µM.
